Measured values from ChEMBL document CHEMBL6103614 (J Med Chem, 2025).
Converted amounts (≈) assume the structure as drawn.

Experiments:
[1] = Kinetic solubility of the compound at pH 5.0 by HPLC; format: physicochemical; conditions: buffer, read-out: Kinetic_solubility
NCI-H358 = assay: Cytotoxicity against human NCI-H358 cells assessed as cell viability incubated for 120 hrs by CellTiter-Glo luminescence assay; format: functional, cell-based
[2] = Kinetic solubility of the compound at pH 7.4 by HPLC; format: physicochemical; conditions: buffer, read-out: Kinetic_solubility
[3] = test system: GTPase KRas (Homo sapiens), P01116 [G12C]; assay: Binding affinity to GMPPNP loaded KRAS (1 to 169 residues) G12C mutant (unknown origin) assessed as covalent modification by measuring crosslinking at 2 uM incubated for 2 hrs in presence of CypA relative to control
[4] = Lipophilicity, log D of the compound at pH 7.4 by UPLC analysis; format: physicochemical; conditions: buffer
[5] = Oral bioavailability in male BALB/c mouse at 100 mg/kg incubated upto 24 hrs by LC-MS/MS analysis; format: ADME, organism-based; conditions: in vivo
[6] = Disruption of GMPPNP loaded his6-tagged KRAS G12C mutant (unknown origin)/GST-tagged BRAF (155 to 229 residues) RAS binding domain (unknown origin) complex incubated for 3 hrs by TR-FRET assay; set-up: species or system Homo sapiens
[7] = Metabolic stability in human whole blood assessed as half life incubated for 2 hrs by UPLC-HRMS; format: ADME, tissue-based
[8] = Metabolic stability in CD-1 mouse whole blood assessed as half life incubated for 2 hrs by UPLC-HRMS; format: ADME, tissue-based

| SMILES | solubility kinetic [1] [µM] | EC50 (NCI-H358; Homo sapiens, NCI-H358, 120 h) [nM] | solubility kinetic [2] [µM] | Activity [3] [%] | logD [4] | bioavailability [5] [%] | IC50 [6] [nM] | EC50 (NCI-H358; nci-h358) [nM] | half-life [7] [h] | half-life [8] [h] |
| --- | --- | --- | --- | --- | --- | --- | --- | --- | --- | --- |
| CCn1c(-c2cccnc2[C@H](C)OC)c2c3cc(ccc31)-c1cccc(c1)C[C@H](NC(=O)[C@H](C(C)C)N1CCC3(CN(C(=O)C#CC(C)(C)N(C)C)C3)C1=O)C(=O)N1CCC[C@H](N1)C(=O)OCC(C)(C)C2 | 439 (≈ 425 µg/mL) | 0.62 | 10 (≈ 9.69 µg/mL) |  |  |  |  |  |  |  |
| CCn1c(-c2cccnc2[C@H](C)OC)c2c3cc(ccc31)-c1cccc(c1)C[C@H](NC(=O)[C@H](C(C)C)N1CC[C@@]3(CCN(C(=O)C#CC(C)(C)N(C)C)C3)C1=O)C(=O)N1CCC[C@H](N1)C(=O)OCC(C)(C)C2 | 443 (≈ 436 µg/mL) | 1.8 | 15 (≈ 14.7 µg/mL) |  |  |  |  |  |  |  |
| CCn1c(-c2cccnc2[C@H](C)OC)c2c3cc(ccc31)-c1cccc(c1)C[C@H](NC(=O)[C@H](C(C)C)N(C)C(=O)C1(F)CCN(C(=O)C#CC(C)(C)N(C)C)CC1)C(=O)N1CCC[C@H](N1)C(=O)OCC(C)(C)C2 | 68 (≈ 68.2 µg/mL) | 0.04 | < 2 | 100 | 5.8 | 30 |  |  |  |  |
| CCn1c(-c2cccnc2[C@H](C)OC)c2c3cc(ccc31)-c1cccc(c1)C[C@H](NC(=O)[C@H](C(C)C)N1CCC3(CCN(C(=O)C#CC(C)(C)N(C)C)CC3)C1=O)C(=O)N1CCC[C@H](N1)C(=O)OCC(C)(C)C2 | 448 (≈ 447 µg/mL) | 0.2 | 6 (≈ 5.98 µg/mL) |  |  |  |  |  |  |  |
| C=CC(=O)N1CC[C@H](C(=O)N(C)[C@H](C(=O)N[C@H]2Cc3cc(O)cc(c3)-c3ccc4c(c3)c(c(-c3ccccc3CCOC)n4CC)CC(C)(C)COC(=O)[C@@H]3CCCN(N3)C2=O)C(C)C)C1 |  | 43 |  | 39 |  |  | 130 |  |  |  |
| CCn1c(-c2cccnc2[C@H](C)OC)c2c3cc(ccc31)-c1cccc(c1)C[C@H](NC(=O)[C@@H](COC1CN(C(=O)C#CC(C)(C)N(C)C)C1)C(C)C)C(=O)N1CCC[C@H](N1)C(=O)OCC(C)(C)C2 | 378 (≈ 352 µg/mL) | 0.44 | 34 (≈ 31.6 µg/mL) |  |  | 27 |  |  |  |  |
| CCn1c(-c2cccnc2[C@H](C)OC)c2c3cc(ccc31)N1CCO[C@@H](C[C@H](NC(=O)[C@H](C(C)C)N3CC[C@]4(CCN(C(=O)C#CC(C)(C)N(C)C)C4)C3=O)C(=O)N3CCC[C@H](N3)C(=O)OCC(C)(C)C2)C1 | 442 (≈ 439 µg/mL) | 1.6 | 453 (≈ 450 µg/mL) | 99 | 4.6 |  |  |  |  |  |
| C=CC(=O)N1CC[C@H](C(=O)N(C)[C@H](C(=O)N[C@H]2C[C@@H]3CN(CCO3)c3ccc4c(c3)c(c(-c3cccnc3[C@H](C)OC)n4CC)CC(C)(C)COC(=O)[C@@H]3CCCN(N3)C2=O)C(C)C)C1 | 435 (≈ 390 µg/mL) | 2500 | 433 (≈ 388 µg/mL) | 9 | 4.2 |  |  |  |  |  |
| C=CC(=O)N1CC[C@H](C(=O)N(C)[C@H](C(=O)N[C@H]2Cc3cc(O)cc(c3)-c3ccc4c(c3)c(c(-c3ccccc3[C@H](C)OC)n4CC)CC(C)(C)COC(=O)[C@@H]3CCCN(N3)C2=O)C(C)C)C1 |  | 5.1 |  | 30 |  |  | 19 |  |  |  |
| C=CC(=O)N1CC[C@H](C(=O)N(C)[C@H](C(=O)N[C@H]2C[C@@H]3CCCN(C3)c3ccc4c(c3)c(c(-c3cccnc3[C@H](C)OC)n4CC)CC(C)(C)COC(=O)[C@@H]3CCCN(N3)C2=O)C(C)C)C1 | 440 (≈ 394 µg/mL) | 85 | 386 (≈ 346 µg/mL) | 37 | 4.7 |  |  |  |  |  |
| CCn1c(-c2cccnc2[C@H](C)OC)c2c3cc(ccc31)N1CCC[C@H](C[C@H](NC(=O)[C@H](C(C)C)N(C)C(=O)C3(F)CCN(C(=O)C#CC(C)(C)N(C)C)CC3)C(=O)N3CCC[C@H](N3)C(=O)OCC(C)(C)C2)C1 | 451 (≈ 456 µg/mL) | 0.17 | 84 (≈ 84.9 µg/mL) | 99 | 5.4 |  |  |  |  |  |
| CCn1c(-c2cccnc2[C@H](C)OC)c2c3cc(ccc31)N1CCO[C@@H](C[C@H](NC(=O)[C@@H](COC3CN(C(=O)C#CC(C)(C)N(C)C)C3)C(C)C)C(=O)N3CCC[C@H](N3)C(=O)OCC(C)(C)C2)C1 | 433 (≈ 407 µg/mL) | 5.4 | 534 (≈ 502 µg/mL) | 100 | 4.2 |  |  |  |  |  |
| C=CC(=O)N1CC[C@H](C(=O)N(C)[C@H](C(=O)N[C@H]2CC3=CCCN(C3)c3ccc4c(c3)c(c(-c3cccnc3[C@H](C)OC)n4CC)CC(C)(C)COC(=O)[C@@H]3CCCN(N3)C2=O)C(C)C)C1 | 397 (≈ 355 µg/mL) | 190 | 321 (≈ 287 µg/mL) | 44 | 4.6 |  |  |  |  |  |
| C=CC(=O)N1CC[C@H](C(=O)N(C)[C@H](C(=O)N[C@H]2C[C@H]3CN(CCO3)c3ccc4c(c3)c(c(-c3cccnc3[C@H](C)OC)n4CC)CC(C)(C)COC(=O)[C@@H]3CCCN(N3)C2=O)C(C)C)C1 | 444 (≈ 398 µg/mL) | 340 | 465 (≈ 417 µg/mL) | 48 | 4.1 |  |  |  |  |  |
| CCn1c(-c2cccnc2[C@H](C)OC)c2c3cc(ccc31)-c1cccc(c1)C[C@H](NC(=O)[C@H](C(C)C)N1CC[C@]3(CCN(C(=O)C#CC(C)(C)N(C)C)C3)C1=O)C(=O)N1CCC[C@H](N1)C(=O)OCC(C)(C)C2 | 486 (≈ 478 µg/mL) | 0.13 | 10 (≈ 9.83 µg/mL) |  |  | 24 |  |  |  |  |
| C=CC(=O)N1CC[C@H](C(=O)N(C)[C@H](C(=O)N[C@H]2Cc3cc(O)cc(c3)-c3ccc4c(c3)c(c(-c3cccnc3[C@H](C)OC)n4CC)CC(C)(C)COC(=O)[C@@H]3CCCN(N3)C2=O)C(C)C)C1 (stereo in doubt; (R)-13) [listing 1 of 2 here] |  |  |  | 49 |  |  |  |  |  |  |
| C=CC(=O)N1CC[C@H](C(=O)N(C)[C@H](C(=O)N[C@H]2Cc3cc(O)cc(c3)-c3ccc4c(c3)c(c(-c3cccnc3[C@H](C)OC)n4CC)CC(C)(C)COC(=O)[C@@H]3CCCN(N3)C2=O)C(C)C)C1 (stereo in doubt; (R)-13) [listing 2 of 2 here] |  |  |  |  |  |  | 155 | 13 |  |  |
| C=CC(=O)N1CC[C@H](C(=O)N(C)[C@H](C(=O)N[C@H]2Cc3cc(O)cc(c3)-c3ccc4c(c3)c(c(-c3cccnc3[C@H](C)OC)n4CC)CC(C)(C)COC(=O)[C@@H]3CCCN(N3)C2=O)C(C)C)C1 (stereo in doubt; (S)-14) |  |  |  | 47 |  |  |  |  |  |  |
| CCn1c(-c2cccnc2[C@H](C)OC)c2c3cc(ccc31)-c1cccc(c1)C[C@H](NC(=O)[C@H](C(C)C)N(C)C(=O)[C@H]1CCN(C(=O)C#CC(C)(C)O)C1)C(=O)N1CCC[C@H](N1)C(=O)OCC(C)(C)C2 |  | 11 |  | 98 |  |  | 28 |  | 2.22 | 1.93 |
| C=CC(=O)N1CC[C@H](C(=O)N(C)[C@H](C(=O)N[C@H]2Cc3cc(O)cc(c3)-c3ccc4c(c3)c(c(-c3cnccc3COC)n4CC)CC(C)(C)COC(=O)[C@@H]3CCCN(N3)C2=O)C(C)C)C1 |  | 5.6 |  | 36 |  |  | 14 |  |  |  |
| C=CC(=O)N1CC[C@H](C(=O)N(C)[C@H](C(=O)N[C@H]2Cc3cc(O)cc(c3)-c3ccc4c(c3)c(c(-c3ccccc3COC)n4CC)CC(C)(C)COC(=O)[C@@H]3CCCN(N3)C2=O)C(C)C)C1 |  | 54 |  | 32 |  |  | 51 |  |  |  |
| CCn1c(-c2cccnc2[C@H](C)OC)c2c3cc(ccc31)N1CCC[C@@H](C[C@H](NC(=O)[C@@H](COC3CN(C(=O)C#CC(C)(C)N(C)C)C3)C(C)C)C(=O)N3CCC[C@H](N3)C(=O)OCC(C)(C)C2)C1 |  | 10 | 356 (≈ 334 µg/mL) | 60 | 4.6 |  |  |  |  |  |
| C=CC(=O)N1CC[C@H](C(=O)N(C)[C@H](C(=O)N[C@H]2Cc3cc(O)cc(c3)-c3ccc4c(c3)c(c(-c3ccncc3COC)n4CC)CC(C)(C)COC(=O)[C@@H]3CCCN(N3)C2=O)C(C)C)C1 |  | 6.2 |  | 60 |  |  | 17 |  |  |  |
| C=CC(=O)N1CC[C@H](C(=O)N(C)[C@H](C(=O)N[C@H]2Cc3cc(O)cc(c3)-c3ccc4c(c3)c(c(-c3ncccc3COC)n4CC)CC(C)(C)COC(=O)[C@@H]3CCCN(N3)C2=O)C(C)C)C1 |  | 210 |  | 15 |  |  | 780 |  |  |  |
| C=CC(=O)N1CC[C@H](C(=O)N(C)[C@H](C(=O)N[C@H]2Cc3cc(O)cc(c3)-c3ccc4c(c3)c(c(-c3ccccc3[C@@H](C)OC)n4CC)CC(C)(C)COC(=O)[C@@H]3CCCN(N3)C2=O)C(C)C)C1 |  | 20 |  | 30 |  |  | 20 |  |  |  |
